Patent publication US20260209152A1, “Substituted Hydroxystilbene Compounds and Derivatives, Synthesis and Uses Thereof” (Kynan Duke IP, LLC, priority 2019, published 2026)
Like-named read-outs stand apart in the source and are kept apart here.

What was measured:
Format in all cases: cell-based, human
[1] = tested on: Cancer cells including pancreatic, bladder, kidney, colon, breast, lung, liver and osteosarcomas; experiment: CellTiter Glo cell viability assay, panel of cancer cell lines; conditions: SAR discussion based on IC50 values in Tables 1 to 5; compared with 1 [KYN-001]
Protocol: Compounds 1 to 15 were evaluated and their effect on cancer growth examined in cell viability assays on multiple cancer types (Tables 1 to 5). Cancer cells including pancreatic, bladder, kidney, colon, breast, lung, liver and osteosarcomas obtained from ATCC (American Type Culture Collection) were authenticated before use by Short Tandem Repeat genomic analysis (Reid Y, Storts D, Riss T and Minor L. Authentication of Human Cell Lines by STR DNA Profiling Analysis. 2013 May 1. In: Markossian S, Sittampalam G S, Grossman A, et al., editors. Assay Guidance Manual. Bethesda (MD): Eli Lilly & Company and the National Center for Advancing Translational Sciences; 2004.). Experimental protocol for each cancer cell line was verified and optimized according to literature reports before use (Tables 1 to 3).
(§1) 1.7*10^3 cells/well were seeded in quadruplicates in 96-well plate after plating. Drugs were added at 5 μM and 2-fold dilutions over 18 concentrations (0.000038146-5 M concentration range) to generate a dose-response curve. Cell growth was assessed on day 1, 3 and 5 after drug treatments using the CellTiter Glo Luminescence Cell Viability Assay (Promega) according to manufacturer's protocol. Thermo Scientific Varioskan LUX Multimode Microplate instrument was used for plate reading. Data are expressed as mean luminescence (arbitrary units) ±S.D.
(§2) Cell Viability Assays were employed to determine the concentration of Compound 1 (KYN-001) and analogues where the response is reduced by half. For each treatment of cancer cells, 1, 2, 5, 10 and 20 μM solutions of compounds were applied. GraphPad Prism 7 software was used to fit dose response curves. Relative Luminescence Units were plotted against the log values of the doses used and the nonlinear regression model was used for data analysis.
(§3) The protocol for cell proliferation was optimized for Compound 8 (KYN-119) to enable a more accurate assessment of its low IC50 value. In this protocol, 18 dosages (2 fold dilutions ranging from 0.000038146 to 5 μM) were applied to cells seeded in 96-well plates, and Luminescence was measured after 1, 3 and 5 days upon treatments.

Bladder RT-112 = experiment: CellTiter Glo cell viability assay; conditions: Homo sapiens, RT-112, 72 h, Table 4: 3 Days of treatment; 18 2-fold dilutions 5-0.00003 μM; Average (1, 8) or single Exp A-D; read-out: IC50
Protocol: as §1, §2, §3

Kidney A-498 = experiment: CellTiter Glo cell viability assay; conditions: read-out: IC50
Protocol: as §1, with “Drugs were added at 5 μM and 2-fold dilutions over 18 concentrations (0.000038146-5 M concentration range) to generate a dose-response curve.” left out
as §2, with “For each treatment of cancer cells, 1, 2, 5, 10 and 20 μM solutions of compounds were applied.” left out
The protocol for cell proliferation was optimized for Compound 8 (KYN-119) to enable a more accurate assessment of its low IC50 value. […]

Pancreatic MIA PaCa-2 = experiment: CellTiter Glo cell viability assay; conditions: read-out: IC50
Protocol: as §1, §2, §3
Day 3 upon treatment of MIA PaCa_2 pancreatic cancer cells, 24 h after plating (11 dilutions), as assessed by CellTiter Glow Assay.

[2] = Homo sapiens, A498, 72 h, Table 4: 3 Days of treatment, 18 2-fold dilutions 5-0.00003 μM, Average (1, 8) or single Exp A-D
[3] = Homo sapiens, A498, Table 5A: 11 dilutions 3-0.00001 μM, single experiments Exp E-K
[4] = Table 5A: 11 dilutions 3-0.00001 μM, single experiments Exp E-K
[5] = Homo sapiens, MIA PaCa-2, 72 h, Table 4: 3 Days of treatment, 18 2-fold dilutions 5-0.00003 μM, Average (1, 8) or single Exp A-D
[6] = Table 5A: 11 dilutions 3-0.00001 μM, single experiments Exp E-K, listed as KYN-140
[7] = Homo sapiens, MIA PaCa-2, Table 5A: 11 dilutions 3-0.00001 μM, single experiments Exp E-K
[8] = Table 5A: 11 dilutions 3-0.00001 μM, single experiments Exp E-K, listed as KYN-139

Row | SMILES | Cancer cell viability inhibition, statement in words [1] | IC50 (Kidney A-498; [3]) [µM] | IC50 (Pancreatic MIA PaCa-2; [7]) [µM] | other results
1 | COc1cc(/C=C\c2cc(O)cc(OC)c2CC=C(C)C)ccc1NS(C)(=O)=O [Compound 26, (Z)—N-(4-(5-hydroxy-3-methoxy-2-(3-methylbut-2-en-1-yl)styryl)-2-methoxyphenyl)methanesulfonamide] | Total loss of the anti-proliferative effect | – | – | –
2 | COc1cc(/C=C/c2cc(O)cc(OC)c2Cc2ccccc2)ccc1O [Compound 7, (E)-4-benzyl-3-(4-hydroxy-3-methoxystyryl)-5-methoxyphenol] | – | 0.1 to 1 | – | IC50 (Bladder RT-112): 0.17 µM; IC50 (Kidney A-498; [2]): 0.288 µM; IC50 (Kidney A-498; [4]): 0.199 µM
3 | C=CC(C)c1c(/C=C/c2ccc(O)c(OC)c2)cc(O)cc1OC (stereo not shown) [Compound 4, (E)-4-(but-3-en-2-yl)-3-(4-hydroxy-3-methoxystyryl)-5-methoxyphenol] | – | – | – | IC50 (Pancreatic MIA PaCa-2; [5]): 0.755 µM; IC50 (Pancreatic MIA PaCa-2; [6]): 0.746 µM; IC50 (Kidney A-498; [2]): 0.667 µM; IC50 (Kidney A-498; [6]): 0.754 µM
4 | COc1cc(/C=C/c2cc(O)cc(OC)c2CC=C(C)C)ccc1C(=O)O [Compound 21, (E)-4-(5-Hydroxy-3-methoxy-2-(3-methylbut-2-en-1-yl)styryl)-2-methoxybenzoic acid] | – | > 3 | > 3 | IC50 (Kidney A-498; [4]): ~3 µM
5 | C/C=C/Cc1c(/C=C/c2ccc(O)c(OC)c2)cc(O)cc1OCC [Compound 5, 4-((E)-But-2-en-1-yl)-3-ethoxy-5-((E)-4-hydroxy-3-methoxystyryl)phenol] | – | 1.19 | – | IC50 (Pancreatic MIA PaCa-2; Table 5A: 11 dilutions 3-0.00001 μM, single experiments Exp E-K, listed as KYN-153): 0.0275 µM
6 | CCOc1cc(O)cc(/C=C/c2ccc(O)c(NC=O)c2)c1CC=C(C)C [Compound 41, (E)-N-(5-(3-Ethoxy-5-hydroxy-2-(3-methylbut-2-en-1-yl)styryl)-2-hydroxyphenyl)formamide] | inactive or weakly active | – | > 3 | –
7 | COc1cc(/C=C/c2cc(N)cc(OC)c2CC=C(C)C)ccc1O [Compound 43, (E)-4-(5-Amino-3-methoxy-2-(3-methylbut-2-en-1-yl)styryl)-2-methoxyphenol] | No significant enhancement of activity | ~3 | ~3 | –
8 | CCOc1cc(O)cc(/C=C/c2ccc(NC(=O)CCC(=O)O)c(OC)c2)c1CC=C(C)C [Compound 37, (E)-4-((4-(3-Ethoxy-5-hydroxy-2-(3-methylbut-2-en-1-yl)styryl)-2-methoxyphenyl)amino)-4-oxobutanoic acid] | – | – | > 3 | –
9 | COc1cc(/C=C/c2cc(NC=O)cc(OC)c2CC=C(C)C)ccc1O [Compound 44, (E)-N-(3-(4-Hydroxy-3-methoxystyryl)-5-methoxy-4-(3-methylbut-2-en-1-yl)phenyl)formamide] | No significant enhancement of activity | 2.04 | 1.16 | –
10 | C/C=C\Cc1c(/C=C/c2ccc(O)c(OC)c2)cc(O)cc1OC [Compound 3, 4-((Z)-but-2-en-1-yl)-3-((E)-4-hydroxy-3-methoxystyryl)-5-methoxyphenol] | – | – | – | IC50 (Pancreatic MIA PaCa-2; [5]): 0.381 µM; IC50 (Pancreatic MIA PaCa-2; [8]): 0.52 µM; IC50 (Kidney A-498; [2]): 0.361 µM; IC50 (Kidney A-498; [8]): 0.545 µM
11 | C=CCc1c(/C=C/c2ccc(O)c(OC)c2)cc(O)cc1OC [Compound 6, (E)-4-allyl-3-(4-hydroxy-3-methoxystyryl)-5-methoxyphenol] | – | 1.09 | 1.28 | IC50 (Bladder RT-112): 0.862 µM; IC50 (Kidney A-498; [2]): 1.59 µM
12 | CCOc1cc(O)cc(/C=C/c2ccc(NCC(=O)OC)c(OC)c2)c1CC=C(C)C [Compound 34, Methyl (E)-(4-(3-ethoxy-5-hydroxy-2-(3-methylbut-2-en-1-yl)styryl)-2-methoxyphenyl)glycinate] | – | – | 0.1 to 1 | IC50 (Pancreatic MIA PaCa-2; [4]): 0.173 µM
13 | COc1cc(/C=C/c2cc(O)cc(OC)c2CC=C(C)C)cc(O)c1O [Compound 18, (E)-5-(5-Hydroxy-3-methoxy-2-(3-methylbut-2-en-1-yl)styryl)-3-methoxybenzene-1,2-diol] | – | ~3 | ~1 | –
14 | CCOc1cc(O)cc(/C=C/c2ccc(NC=O)c(O)c2)c1CC=C(C)C [Compound 40, (E)-N-(4-(3-Ethoxy-5-hydroxy-2-(3-methylbut-2-en-1-yl)styryl)-2-hydroxyphenyl)formamide] | very strongly weakened activity | 2.93 | > 3 | –
15 | C/C=C/Cc1c(/C=C/c2ccc(O)c(OC)c2)cc(O)cc1OC [Compound 2, 4-((E)-but-2-en-1-yl)-3-((E)-4-hydroxy-3-methoxystyryl)-5-methoxyphenol] | biological activity comparable with 1 | 0.1 to 1 | 0.1 to 1 | IC50 (Pancreatic MIA PaCa-2; [5]): 0.119 µM; IC50 (Pancreatic MIA PaCa-2; [4]): 0.135 µM; IC50 (Kidney A-498; [2]): 0.117 µM; IC50 (Kidney A-498; [4]): 0.132 µM
16 | COc1cc(/C=C/c2cc(O)cc(OC)c2CC=C(C)C)ccc1NS(C)(=O)=O [Compound 25, (E)-N-(4-(5-hydroxy-3-methoxy-2-(3-methylbut-2-en-1-yl)styryl)-2-methoxyphenyl)methanesulfonamide] | – | 15 | – | IC50 (Pancreatic MIA PaCa-2; [5]): 7.74 µM
17 | CCOc1cc(O)cc(/C=C/c2ccc3[nH]c(=O)oc3c2)c1CC=C(C)C [Compound 52, (E)-6-(3-Ethoxy-5-hydroxy-2-(3-methylbut-2-en-1-yl)styryl)benzo[d]oxazol-2(3H)-one] | no significant activity | – | – | –
18 | CCOc1cc(O)cc(/C=C/c2ccc(NC(=O)CN)c(OC)c2)c1CC=C(C)C [Compound 32, (E)-2-Amino-N-(4-(3-ethoxy-5-hydroxy-2-(3-methylbut-2-en-1-yl)styryl)-2-methoxyphenyl)acetamide] | – | 1.83 | – | –
19 | COc1cc(/C=C/c2cc([N+](=O)[O-])cc(OC)c2CC=C(C)C)ccc1O [Compound 42, (E)-2-Methoxy-4-(3-methoxy-2-(3-methylbut-2-en-1-yl)-5-nitrostyryl)phenol] | almost complete loss of anticancer activity | ~3 | – | –
20 | COc1cc(O)cc(/C=C/c2cc(O)cc(OC)c2CC=C(C)C)c1 [Compound 19, (E)-3-(3-Hydroxy-5-methoxystyryl)-5-methoxy-4-(3-methylbut-2-en-1-yl)phenol] | strongly weakened activity | > 3 | 0.921 | –
21 | COc1cc(O)cc(/C=C/c2ccc(O)c(N(C)C)c2)c1CC=C(C)C [Compound 16, (E)-3-(3-(Dimethylamino)-4-hydroxystyryl)-5-methoxy-4-(3-methylbut-2-en-1-yl)phenol] | inactive or weakly active | > 3 | > 3 | –
22 | COc1cc(/C=C/c2cc(O)cc(C(F)(F)F)c2CC=C(C)C)ccc1O [Compound 46, (E)-3-(4-hydroxy-3-methoxystyryl)-4-(3-methylbut-2-en-1-yl)-5-(trifluoromethyl)phenol] | complete loss of biological activity | – | – | –
23 | [H]/N=C(\N)Nc1ccc(C=Cc2cc(O)cc(OCC)c2CC=C(C)C)cc1OC [Compound 38, (E)-1-(4-(3-ethoxy-5-hydroxy-2-(3-methylbut-2-en-1-yl)styryl)-2-methoxyphenyl)guanidine] | – | 0.1 to 1 | > 3 | IC50 (Kidney A-498; [4]): ~0.1 µM
